Measurements reported in patent EP0609289B1, “IMIDAZOLE DERIVATIVES AND PHARMACEUTICAL COMPOSITIONS CONTAINING THE SAME” (THE UPJOHN COMPANY, priority 1991, dated 1993).

Assays:
[1] = tested on: blood pressure increase by angiotensin II; assay: Blood pressure increase by angiotensin II-inhibiting test, intraduodenal administration, anesthetized normotensive rat; type: in vivo
[2] = tested on: angiotensin II constriction in an isolated rabbit thoracic aorta; assay: Antagonism to angiotensin II constriction in an isolated rabbit thoracic aorta (test 3); settings: test compound 10^-6 M for 20 minutes
Experimental: 3) Antagonism to angiotensin II constriction in an isolated rabbit thoracic aorta
A rectangular strip-like sample of thoracic aorta isolated from an anaesthetized rabbit was prepared, and the sample was suspended at 2.0 g of loaded tension in a Magnus tube filled with Krebs-Henseleitoid nutrition solution which was well aerated with 95% O2-5% CO2, and the constriction tension was measured using an isometric transducer. After the tension of the sample at rest became stable, accumulative administration of angiotensin II was carried out to obtain a concentration-action curve. Thereafter, the sample was washed with the same nutrition solution, then treated with test compound (10^-6 M) for 20 minutes to obtain again a concentration-action curve of angiotensin II. The results were obtained as followed: generated maximum tension at the first accumulative administration of angiotensin II was regarded as 100 %, and the 50 % effective concentration (ED50) was obtained in the presence or absence of the test compound, and pA2 value was calculated according to the following equations: • pA2=-logKB KB=C/{(A'/A)-1} • C; concentration of the test compound (M) • A'; ED50 in the presence of test compound (M) • A; ED50 in the absence of the test compound (M)

[3] = tested on: hypertensive rat model (SHR); assay: Oral administration test in hypertensive rat model (SHR); type: in vivo; settings: 10 mg/kg oral administration
[4] = tested on: blood pressure increase by angiotensin II; assay: Antagonism to blood pressure increase by angiotensin II in a spine destroyed (pithed) rat (test 4); type: in vivo, Wistar rat; settings: intravenous administration, 3µg/kg angiotensin II, read-out: Inhibition of blood pressure increase by angiotensin II in pithed rat ED50(mg/kg) (test 4)
Description: 4) Antagonism to blood pressure increasing by angiotensin II in a spine destroyed rat
Wistar rat anaesthetized with pentobarbital was fixed at dorsal position, and a cannula for measuring blood pressure was inserted into sinister arteria carotis communis, and a cannula for administration of the test compound into dexter external jugular vein and a cannula for administration of angiotensin II into sinister external jugular vein, ambilateral nervus vagus was cut, and artificial respiration was carried out. A thin bar made of metal was stabbed into spinal column through sinister orbita to destroy spine. Blood pressure was recorded on polygraph via pressure transducer from an arterial cannula. After blood pressure was stable for more than 30 min., 3µg/kg of angiotensin II was administered intravenously four times every 15 min, and every 5 min. before the administration of angiotensin II from the second administration onward, a solvent, a lower dose of the test compound, and a higher dose of the test compound were administered intravenously in this order to observe the blood pressure increasing response by angiotensin II. ED50 values were calculated from the inhibiting rate when the first blood pressure increase by angiotensin II was regarded as 100 %.

[5] = target: Angiotensin II receptor; assay: In vitro angiotensin II mesenteric artery receptor binding assay (test 1); settings: rat mesenteric artery membrane fraction, 0.2 nM 125I-Ang II, 22°C, 90 minutes
How it was run: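 Rat mesenteric artery membranes ([…] protein equivalent) incubated with 0.2 nM ^125I-Ang II and compound, 90 min at 22°C, pH 7.2 Tris buffer. Bound radioactivity counted after filtration; nonspecific binding defined with 1 µM unlabeled angiotensin II.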

SMILES	ED50 [1]	action lasting time ([1]; 1 mg/kg)	Inhibition of rabbit aorta constriction pA2 (test 3) [2]	vasodepressor activity [3]	ED50 [4]	IC50 [5]	action lasting time ([1]; 3 mg/kg)
CCCCc1nc2c(n1Cc1ccc(-c3ccccc3-c3nn[nH]n3)cc1)C(=O)N1N(C2)C2(C)CCC1(C)CC2 [Compound No. 451, 2-n-butyl-5,8-dimethyl-5,8-ethano-5,6,7,8-tetrahydro-1-[{2'-(1H-tetrazol-5-yl)biphenyl-4-yl}methyl]-1H,4H-1,3,4a,8a-tetraza-cyclopentanaphthalene-9-one]	0.84 mg/kg	not less than 5 hours	10.04	significant vasodepressor activity over 24 hours	0.63 mg/kg	1.9 nM	–
CCCc1nc2c(=O)n3n(c(=O)c2n1Cc1ccc(-c2ccccc2-c2nn[nH]n2)cc1)C1C=CC3CC1 (stereo not drawn) [Compound No. 105, 5,8-dihydro-5,8-ethano-2-n-propyl-1-[(2'-(1H-tetrazol-5-yl)biphenyl-4-yl)methyl]-1H-1,3,4a,8a-tetraza-cyclopentanaphthalene-4,9-dione]	–	–	9.42	–	0.1 mg/kg	1.5 nM	–
CCCc1nc2c(n1Cc1ccc(-c3ccccc3-c3nnn[nH]3)cc1)C(=O)N1N(C2)C2(CC)CCC1(CC)CC2 [Compound No. 454, 5,8-diethyl-5,8-ethano-2-n-propyl-5,6,7,8-tetrahydro-1-[{2'-(1H-tetrazol-5-yl)biphenyl-4-yl}methyl]-1H,4H-1,3,4a,8a-tetraza-cyclopentanaphthalene-9-one]	1.28 mg/kg	–	10.34	–	0.34 mg/kg	3.5 nM	not less than 5 hours
CCCc1nc2c(=O)n3n(c(=O)c2n1Cc1ccc(-c2ccccc2-c2nn[nH]n2)cc1)C1CCC3CC1 [Compound No. 108, 5,8-ethano-2-n-propyl-5,6,7,8-tetrahydro-1-[(2'-(1H-tetrazol-5-yl)biphenyl-4-yl)methyl]-1H-1,3,4a,8a-tetraza-cyclopentanaphthalene-4,9-dione]	–	–	9.53	–	0.069 mg/kg	1.9 nM	–
CCCc1nc2c(=O)n3n(c(=O)c2n1Cc1ccc(-c2ccccc2-c2nnn[nH]2)cc1)C(C)CCC3C(=O)NC(C)(C)C (stereo not drawn) [Compound No. 207, 4,9-dioxo-8-methyl-2-n-propyl-5,6,7,8-tetrahydro-1-[{2'-(1H-tetrazol-5-yl)biphenyl-4-yl}methyl]-1H-1,3,4a,8a-tetraza-cyclopentanaphthalene-5-carboxy-N-t-butylamide]	–	–	10.1	–	0.033 mg/kg	3.9 nM	–
CCCc1nc2c(n1Cc1ccc(-c3ccccc3-c3nn[nH]n3)cc1)C(=O)N1N(C2)C2(C)CCC1(C)CC2 [Compound No. 450, 5,8-dimethyl-5,8-ethano-2-n-propyl-5,6,7,8-tetrahydro-1-[{2'-(1H-tetrazol-5-yl)biphenyl-4-yl}methyl)-1H,4H-1,3,4a,8a-tetraza-cyclopentanaphthalene-9-one]	0.95 mg/kg	–	9.92	–	0.32 mg/kg	1.7 nM	not less than 5 hours
CCCCc1nc2c(n1Cc1ccc(-c3ccccc3-c3nnn[nH]3)cc1)C(=O)N1N(C2)C2(CC)CCC1(CC)CC2 [Compound No. 455, 2-n-butyl-5,8-diethyl-5,8-ethano-5,6,7,8-tetrahydro-1-[{2'-(1H-tetrazol-5-yl)biphenyl-4-yl}methyl]-1H,4H-1,3,4a,8a-tetraza-cyclopentanaphthalene-9-one]	0.81 mg/kg	not less than 5 hours	8.82	–	0.64 mg/kg	3.3 nM	–
CCCc1nc2c(=O)n3n(c(=O)c2n1Cc1ccc(-c2ccccc2-c2nn[nH]n2)cc1)C(C)CCC3C(=O)O (stereo not drawn) [Compound No. 111, 4,9-dioxo-8-methyl-2-n-propyl-5,6,7,8-tetrahydro-1-[(2'-(1H-tetrazol-5-yl)biphenyl-4-yl)methyl]-1H-1,3,4a,8a-tetraza-cyclopentanaphthalene-5-carboxylic acid]	–	–	9.01	–	0.51 mg/kg	21 nM	–
